This passage reports GI50 and TGI results from PubChem BioAssay (NCI).

Among the test systems are T-47D breast; OVCAR-8 ovarian; SNB-19 CNS; IGROV1 ovarian; SK-MEL-28 melanoma; SK-MEL-2 melanoma; DU-145 prostate; LOX IMVI melanoma; MDA-MB-231 breast; SK-MEL-5 melanoma.
Assay in all cases: DTP human tumour cell line panel, 48 h

“And” between values parts separate entries of the source, which are not always exact repeats. Equal values may be shown once.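 96-well plates; 48 h exposure; 5 concentrations. Endpoints by linear interpolation between flanking doses. Not reached: highest tested concentration assigned. GI50 is the concentration that inhibits growth by half. TGI marks complete inhibition of growth.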

In general, GI50 refers to the concentration that inhibits growth by half. As a reminder, the TGI is the concentration at which net growth stops. Regarding `COc1ccc(C2CC(c3cccc(Nc4ccnc5cc(Cl)ccc45)c3)=NN2C=O)cc1` (stereo not drawn), the GI50 in the assay on T-47D breast is 0.604 µM; with OVCAR-8 ovarian, 1.12 µM; in the assay with SNB-19 CNS it was 0.902 µM; in the assay with IGROV1 ovarian it was 1.9 µM; in the assay on SK-MEL-28 melanoma it was 1.13 µM; in the assay on SK-MEL-2 melanoma, 0.457 µM. The GI50 was 0.978 µM in the assay on DU-145 prostate, 0.584 µM with LOX IMVI melanoma, 1.7 µM in the assay with MDA-MB-231 breast and 0.403 µM in the assay on SK-MEL-5 melanoma. The TGI was over 42.8 µM in the assay on T-47D breast; over 100 µM in the assay on OVCAR-8 ovarian; over 100 µM in the assay on SNB-19 CNS; over 100 µM in the assay with IGROV1 ovarian; 25.6 µM with SK-MEL-28 melanoma; 6.41 µM in the assay with SK-MEL-2 melanoma. Moreover, the TGI in the assay on DU-145 prostate is over 34.9 µM; in the assay with LOX IMVI melanoma it was 6.8 µM; in the assay with MDA-MB-231 breast, over 66.4 µM; with SK-MEL-5 melanoma, 25.8 µM.
For `O=C(Cc1ccc(/C=C/C(=O)c2ncc[nH]2)cc1)Nc1ccc(F)cc1`, the GI50 in the assay on T-47D breast was 3.33 µM; in the assay on OVCAR-8 ovarian it was 5.08 µM; in the assay with SNB-19 CNS, 1.58 µM; in the assay on IGROV1 ovarian, 2.66 µM; in the assay with SK-MEL-28 melanoma, 6.26 µM; in the assay on SK-MEL-2 melanoma, 7.47 µM. Further, the GI50 is 1.19 µM with DU-145 prostate, 1.07 µM in the assay on LOX IMVI melanoma, 1.83 µM with MDA-MB-231 breast and 6.06 µM with SK-MEL-5 melanoma. Further, the TGI was 24.6 µM with T-47D breast; over 33.3 µM in the assay on OVCAR-8 ovarian; 14.9 µM in the assay with SNB-19 CNS; 13.9 µM with IGROV1 ovarian; 16.6 µM with SK-MEL-28 melanoma; 19 µM with SK-MEL-2 melanoma. Further, the TGI was 4.58 µM in the assay on DU-145 prostate, 4.72 µM in the assay on LOX IMVI melanoma, 10.3 µM with MDA-MB-231 breast and 11.9 µM with SK-MEL-5 melanoma.
Consider `Nc1nccc(-c2c(-c3ccc(F)cc3)ncn2C2CCNCC2)n1`, for which the GI50 with T-47D breast is 1.55 µM and 4.2 µM; with OVCAR-8 ovarian, 5.88 µM and 1.43 µM; with SNB-19 CNS, 6.91 µM and 3.96 µM; in the assay with IGROV1 ovarian, 5.13 µM and 4.73 µM; in the assay with SK-MEL-28 melanoma, 10.2 µM and 8.41 µM; in the assay on SK-MEL-2 melanoma, 13.6 µM and 3.64 µM. For the same molecule, the GI50 in the assay with DU-145 prostate is 7.77 µM and 3.96 µM; in the assay with LOX IMVI melanoma it was 2.84 µM and 2.33 µM; with MDA-MB-231 breast, > 25 µM and 3.97 µM; with SK-MEL-5 melanoma, 1.74 µM and 4.23 µM. Also, the total growth inhibition concentration (TGI) was over 25 µM in the assay on T-47D breast; over 25 µM in the assay on OVCAR-8 ovarian; over 25 µM in the assay on SNB-19 CNS; over 25 µM with IGROV1 ovarian; over 25 µM with SK-MEL-28 melanoma; > 25 µM and 13 µM with SK-MEL-2 melanoma. Besides, the concentration for total growth inhibition (TGI) with DU-145 prostate is over 25 µM; in the assay with LOX IMVI melanoma it was over 25 µM; with MDA-MB-231 breast, over 25 µM; in the assay with SK-MEL-5 melanoma, over 19.9 µM.
Turning to `Cc1cccc(N(C)C(=O)[C@@H]2[C@H](O)CCN2c2nc(C)cc(C(F)(F)F)c2C#N)c1`, the GI50 in the assay with T-47D breast is 23.2 µM; in the assay with OVCAR-8 ovarian it was 28.1 µM; with SNB-19 CNS, 31.1 µM; in the assay with IGROV1 ovarian, 26.5 µM; in the assay on SK-MEL-28 melanoma, 24.3 µM; with SK-MEL-2 melanoma, 15.9 µM. The GI50 in the assay with DU-145 prostate is 25.1 µM; with LOX IMVI melanoma it was 3.61 µM; in the assay with MDA-MB-231 breast it was 19.3 µM; in the assay on SK-MEL-5 melanoma, 15.6 µM. In addition, the TGI in the assay with T-47D breast was over 100 µM; in the assay on OVCAR-8 ovarian it was over 100 µM; in the assay with SNB-19 CNS, over 100 µM; in the assay on IGROV1 ovarian, 94.5 µM; in the assay with SK-MEL-28 melanoma, over 100 µM; in the assay with SK-MEL-2 melanoma, 35 µM. In addition, the TGI in the assay on DU-145 prostate was over 100 µM; in the assay on LOX IMVI melanoma it was 27.3 µM; in the assay on MDA-MB-231 breast, 46 µM; with SK-MEL-5 melanoma it was 30.6 µM.
As to `CCOC(=O)/C(=C/N1CCN(C(=O)c2ccco2)C1=S)C(=O)c1ccccc1`, the GI50 is 4.08 µM in the assay on T-47D breast; 11.7 µM in the assay with OVCAR-8 ovarian; 35.6 µM in the assay on SNB-19 CNS; over 50 µM in the assay with IGROV1 ovarian; 22.2 µM with SK-MEL-28 melanoma; 8.04 µM with DU-145 prostate. For the same molecule, the GI50 in the assay on LOX IMVI melanoma is 6.48 µM; in the assay with MDA-MB-231 breast, 10.8 µM; in the assay with SK-MEL-5 melanoma, under 0.005 µM. Also, the TGI in the assay on T-47D breast was over 50 µM; with OVCAR-8 ovarian it was 35.2 µM; in the assay on SNB-19 CNS, over 50 µM; in the assay with IGROV1 ovarian, over 50 µM; in the assay on SK-MEL-28 melanoma it was over 50 µM; in the assay with DU-145 prostate it was 24.1 µM. The figures for the TGI in the assay with LOX IMVI melanoma, in the assay on MDA-MB-231 breast and with SK-MEL-5 melanoma were 14.2 µM, 33.2 µM and under 0.005 µM, respectively.
As to `C=C1CC[C@@H]2[C@](C)(COC(C)=O)[C@H](OC(C)=O)CC[C@@]2(C)[C@@H]1CC(Nc1ccc(S(=O)(=O)NC(C)=O)cc1)C1=CCOC1=O` (stereo partly drawn), the GI50 was 2.46 µM in the assay with T-47D breast; 2.25 µM in the assay with OVCAR-8 ovarian; 8.19 µM in the assay with SNB-19 CNS; 5.31 µM with IGROV1 ovarian; 3.69 µM with SK-MEL-28 melanoma; 8.68 µM in the assay on SK-MEL-2 melanoma. The GI50 in the assay with DU-145 prostate was 2.8 µM; in the assay on LOX IMVI melanoma, 1.25 µM; with MDA-MB-231 breast, 3.32 µM; in the assay on SK-MEL-5 melanoma it was 3.22 µM. Moreover, the concentration for total growth inhibition (TGI) in the assay on T-47D breast was 12 µM; in the assay with OVCAR-8 ovarian it was 8.42 µM; with SNB-19 CNS it was 18.9 µM; in the assay with IGROV1 ovarian, 15.4 µM; in the assay with SK-MEL-28 melanoma, 13.2 µM; with SK-MEL-2 melanoma it was 19.1 µM. Further, the total growth inhibition concentration (TGI) with DU-145 prostate stood at 9.74 µM; in the assay with LOX IMVI melanoma it was 2.42 µM; in the assay on MDA-MB-231 breast, 11.6 µM; in the assay with SK-MEL-5 melanoma, 11.5 µM.
With `Fc1cc2[nH]ncc2c2c3c(c(-c4cn[nH]c4C(F)(F)F)nc12)CCCC3`, the GI50 in the assay on T-47D breast was 1.97 µM; with OVCAR-8 ovarian it was 2.04 µM; with SNB-19 CNS it was 2.29 µM; with IGROV1 ovarian, 0.802 µM; in the assay on SK-MEL-28 melanoma, 1.41 µM; in the assay with SK-MEL-2 melanoma, 2.07 µM. Besides, the GI50 in the assay with DU-145 prostate was 1.72 µM; in the assay with LOX IMVI melanoma, 1.1 µM; with MDA-MB-231 breast it was 1.83 µM; with SK-MEL-5 melanoma, 1.23 µM. Besides, the concentration for total growth inhibition (TGI) with T-47D breast was 7.39 µM; with OVCAR-8 ovarian, over 100 µM; in the assay on SNB-19 CNS, 9.37 µM; in the assay with IGROV1 ovarian, 5.88 µM; in the assay with SK-MEL-28 melanoma, 5.35 µM; with SK-MEL-2 melanoma, 5.67 µM. Moreover, the concentration for total growth inhibition (TGI) with DU-145 prostate is over 100 µM; in the assay on LOX IMVI melanoma it was 3.05 µM; in the assay with MDA-MB-231 breast, 7.23 µM; with SK-MEL-5 melanoma, 2.95 µM.
